Blank lines part the entries; values can stand above or below the compound they belong to.
Legend:
phosphorylated Met = details: read-out: IC50 on phosphorylated Met; cited from earlier work
unphosphorylated Met = details: cited from earlier work
[1] = system: phosphorylated enzyme (c-Met); details: phosphorylated vs unphosphorylated enzyme; cited from earlier work
[2] = system: SNU5 gastric cancer cell line in which c-Met is amplified; assay: SNU5 proliferation assay; assay type: cell-based; details: Homo sapiens, SNU-5, read-out: IC50 in SNU5 proliferation assays
unphosphorylated c-Met = unphosphorylated c-Met (Homo sapiens, UniProt P08581); assay: c-Met kinase HTRF assay, unphosphorylated form; assay type: biochemical
unphosphorylated c-Met, sequence (P08581 956-1390 limits assumed): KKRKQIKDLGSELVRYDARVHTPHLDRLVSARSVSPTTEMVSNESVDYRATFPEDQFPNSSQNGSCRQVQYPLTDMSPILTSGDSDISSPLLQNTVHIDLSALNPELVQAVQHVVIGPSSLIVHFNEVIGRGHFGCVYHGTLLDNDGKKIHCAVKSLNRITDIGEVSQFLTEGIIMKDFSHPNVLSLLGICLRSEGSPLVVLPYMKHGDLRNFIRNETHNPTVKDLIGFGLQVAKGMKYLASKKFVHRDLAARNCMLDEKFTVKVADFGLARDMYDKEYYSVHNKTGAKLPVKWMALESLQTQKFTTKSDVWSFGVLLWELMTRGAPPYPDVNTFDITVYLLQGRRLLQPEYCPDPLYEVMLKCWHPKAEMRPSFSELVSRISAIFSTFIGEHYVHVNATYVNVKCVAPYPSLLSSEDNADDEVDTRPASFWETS

phosphorylated c-Met = phosphorylated c-Met (Homo sapiens, UniProt P08581); assay: c-Met kinase HTRF assay, phosphorylated form; details: IC50 on the phosphorylated form
phosphorylated c-Met, sequence (P08581 956-1390 limits assumed): as above

Structure (SMILES): COc1cc2c(Oc3ccc(-c4cnc(Cc5ccccc5)n(C)c4=O)cc3F)ccnc2cc1OCCCN1CCOCC1 [AM7, 5-(3-fluoro-4-((6-(methyloxy)-7-((3-(4 morpholinyl)prpyl)oxy)-4-quinolinyl)oxy)phenyl)-3-methyl-2-(phenylmethyl)-4(3H)-pyrimidin-one]
IC50 (phosphorylated Met): 17 nM | fold more potent on unphosphorylated Met (unphosphorylated Met): more than 3 fold | IC50 (unphosphorylated Met; read-out: IC50 on unphosphorylated Met): 5 nM

Structure (SMILES): CN(C[C@@H]1COCCO1)S(=O)(=O)Nc1ccc2ccc3ncc(-c4cnn(C)c4)cc3c(=O)c2c1 [MK2461]
binds to the phosphorylated enzyme tighter [1]: 6 fold

IC50 [2]: 30 nM | difference in potency, phosphorylated vs unphosphorylated form (unphosphorylated c-Met): 55 fold | IC50 (phosphorylated c-Met): 275 nM
Structure (SMILES): Cc1[nH]c(/C=C2\C(=O)Nc3ccc(S(=O)(=O)N(C)c4cccc(Cl)c4)cc32)c(C)c1C(=O)N1CCN(C)CC1 [SU11274]
